{"source": "patent US11213536B2", "about": "“Acylated compounds for the treatment of ocular pathologies” (CONSEJO SUPERIOR DE INVESTIGACIONES CIENTÍFICAS, priority 2016, dated 2022)", "test_system": "SH-SY5Y neuroblastoma cell line", "assay": "Neuroprotection assay: SH-SY5Y viability (MTT) after H2O2 damage", "format": "cell-based", "settings": "H2O2 100 μM, RES 10 μM, MTT 24 h", "description": "The SH-SY5Y neuroblastoma cell line was cultured in petri dishes pre-treated with collagen (100 μg/ml) with F12 medium supplemented with penicillin/streptomycin and 10% inactivated fetal bovine serum.\nCell viability assays with neurons were prepared in 96-well plates pre-treated with collagen by seeding 20,000 cells/well in a volume of 100 μl and incubating the cells for 24 h before the addition of the compounds. The compounds to be tested were dissolved in DMSO and added in three different concentrations (1, 10 and 100 μM) in order to determine their toxicity. The final percentage of DMSO in each well was adjusted to 1%. The cell viability was evaluated 24 h after the addition of the compounds by means of the MTT assay according to the manufacturer's method. Mean values and standard deviations were calculated from at least 8 different measurements from several independent experiments.\nNeuroprotection assays. […] The cell viability was evaluated 24 h after the addition of the compounds by means of the MTT assay according to the manufacturer's method. Mean values and standard deviations were calculated from at least 8 different measurements from several independent experiments. Neuronal recovery was calculated by normalizing the results of the neuronal viability experiments after the addition of our compounds and H2O2 to the positive control of each experiment (neurons+H2O2)."}
{"smiles": "Oc1ccc(C=Cc2cc(O)cc(O)c2)cc1", "note": "[RES, resveratrol, reference compound]", "values": [{"measurement": "recovery of cell viability", "value": "up to 50%"}]}
